In patent US8609610B2, “Inhibitors of the trypsin-like site of the proteasome and methods of use thereof” (Trustees of Dartmouth College, priority 2011, dated 2013):

Assays:
[1] = target: T1, trypsin-like site of 26S proteasomes (Oryctolagus cuniculus, UniProt G1SWK8); experiment: Inhibition of purified 26S proteasomes, substrate Ac-RLR-amc; format: biochemical, rabbit; settings: 26S proteasomes from rabbit muscles
T1 construct: IC50 for sites in 26S proteasomes: Tr-L; other: purified 26S proteasomes; other: 26S proteasomes from rabbit muscles
T1 sequence (G1SWK8 1-271): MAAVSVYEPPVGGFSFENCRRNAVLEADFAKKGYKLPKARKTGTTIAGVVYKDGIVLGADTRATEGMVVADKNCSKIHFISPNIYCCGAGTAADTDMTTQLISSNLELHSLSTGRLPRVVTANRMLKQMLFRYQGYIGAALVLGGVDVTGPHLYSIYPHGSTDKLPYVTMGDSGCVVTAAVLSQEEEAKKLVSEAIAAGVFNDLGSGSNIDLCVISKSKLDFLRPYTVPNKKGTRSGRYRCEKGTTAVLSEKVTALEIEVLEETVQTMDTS

[2] = tested on: trypsin-like site of 26S proteasomes; experiment: as above; format: biochemical, rabbit
[3] = target: T2, chymotrypsin-like site of 26S proteasomes (Oryctolagus cuniculus, UniProt G1T4Q9); experiment: Inhibition of purified 26S proteasomes, substrate Suc-LLVY-amc; format: biochemical, rabbit; settings: >>30 no inhibition at 30 μM, >30 inhibition between 10 and 50% at 30 μM, read-out: IC50 for sites in 26S proteasomes: Chym-L
T2 sequence (G1T4Q9 1-263): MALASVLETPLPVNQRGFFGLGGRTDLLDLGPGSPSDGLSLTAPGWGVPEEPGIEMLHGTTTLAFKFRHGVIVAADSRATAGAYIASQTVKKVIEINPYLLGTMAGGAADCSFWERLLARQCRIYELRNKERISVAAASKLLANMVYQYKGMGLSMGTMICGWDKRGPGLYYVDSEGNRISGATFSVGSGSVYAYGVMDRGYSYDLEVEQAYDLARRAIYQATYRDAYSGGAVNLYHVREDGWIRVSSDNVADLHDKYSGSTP
Method: (§1) 26S proteasomes were purified from rabbit muscle using known methods (Screen, et al. (2010) supra). […] NOVEX Bis-Tris gels (12%, Invitrogen) with MOPS running buffer were used for electrophoretic separation of catalytic subunits modified by active-site probes. Inhibition of active sites inside cells was assayed using luminescent PROTEASOMEGLO assay (Promega; Moravec, et al. (2009) Anal. Biochem. 387:294-302) according to known methods (Britton, et al. (2009) supra).

[4] = target: caspase-like site of 26S proteasomes (Oryctolagus cuniculus, UniProt A0A5F9DQW2); experiment: Inhibition of purified 26S proteasomes, substrate Ac-nLPnLD-amc; format: biochemical, rabbit; settings: >>30 no inhibition at 30 μM, >30 inhibition between 10 and 50% at 30 μM, read-out: IC50 for sites in 26S proteasomes: Casp-L
Sequence of caspase-like site of 26S proteasomes (A0A5F9DQW2 1-212): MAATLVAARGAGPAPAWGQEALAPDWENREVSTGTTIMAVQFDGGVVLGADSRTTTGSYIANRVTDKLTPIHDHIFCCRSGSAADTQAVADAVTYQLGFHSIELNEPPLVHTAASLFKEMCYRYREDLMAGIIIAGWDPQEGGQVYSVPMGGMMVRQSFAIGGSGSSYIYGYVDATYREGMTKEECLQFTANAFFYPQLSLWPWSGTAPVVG
Method: as §1

[5] = target: T3, trypsin-like sites (β2) of proteasome in MM cells (Homo sapiens, UniProt Q99436); experiment: PROTEASOMEGLO assay of proteasome inhibition in MM cells; format: cell-based; settings: NCI-H929 cells treated overnight
T3 construct: endogenous in cells; host or cells: NCI-H929, RPMI-8226 and other MM cell lines
T3 sequence (Q99436 44-277): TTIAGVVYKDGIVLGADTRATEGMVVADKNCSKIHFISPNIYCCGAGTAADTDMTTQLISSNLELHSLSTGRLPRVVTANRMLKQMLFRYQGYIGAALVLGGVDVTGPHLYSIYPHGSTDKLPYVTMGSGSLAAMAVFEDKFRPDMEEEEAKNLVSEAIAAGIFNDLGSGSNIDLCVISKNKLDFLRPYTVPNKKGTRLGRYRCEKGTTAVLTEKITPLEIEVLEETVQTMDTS

Cathepsin B, H, L, S = experiment: Cathepsin activity with pan-cathepsin substrate Z-FR-amc; format: cell-based
Method: (§2) Cathepsin B, H, L, S activity was measured with pan-cathepsin substrate Z-FR-amc (Kirschke & Wiederanders (1994) Methods Enzymol. 244:500-11) in extracts of cytosol-less cells at pH 6.0 (Screen, et al. (2010) supra). Cathepsin D activity was measured in cytosol-less extracts using SENSOLYTE 520 Cathepsin D Fluorometric Assay Kit (AnaSpec). Combined cathepsin D and E activity was measured using the same kit, in which cathepsin D substrate provided with the kit was replaced with 7-Methoxycoumarin-[…](Dnp)-X′-NH2 (SEQ ID NO:10; where “X′” stand for D-Arg) internally quenched fluorogenic substrate of cathepsin D and E. In this case, pH 3.0 assay buffer used for cell extraction. All activity observed using both procedures was inhibited by more than 98% by specific inhibitor of aspartic proteases pepstatin A.

[6] = tested on: Caspase-3/7 activity in NCI-H929 and MM1.R cell lines; experiment: APO-ONE caspase-3/7 assay; format: cell-based; settings: combination of NC-001 and NC-002
Method: RPMI-8226 and NCI-H929 cells were cultured in RPMI-1640 supplemented with 10% fetal bovine serum, penicillin, streptomycin, and plasmocin in 5% CO2 humidified incubator. HEK-293T cells were cultured in DMEM containing 10% fetal calf serum, 10 units/mL penicillin, and 10 μg/mL streptomycin in a 7% CO2 humidified incubator. Viability of multiple myeloma cells was measured with ALAMAR BLUE mitochondrial dye conversion assay. Viability of peripheral blood mononuclear cells (PBMNCs) was measured using CELL TITER-GLO luminescent cell viability assay (Promega), which is based on quantification of ATP present in the cells. Caspase-3/7 activity was measured using APO-ONE 3/7 homogeneous assay (Promega).

β2 and β2i sites = experiment: MV-151 label-competition in extracts of RPMI-8226 MM cells; format: biochemical; settings: extracts of RPMI-8226 cells, MV-151 probe
Source text: Multiple myeloma cells express constitutive proteasomes and immunoproteasomes, and substrates used for the measurement of activity were cleaved by both. To determine whether there were any differences in inhibition of constitutive proteasomes or immunoproteasomes by NC-002, NC-012, and NC-022, the fluorescent activity-based probe MV-151 (Verdoes, et al. (2006) Chem. Biol. 13:1217-1226) was used in a label-competition experiment. Extracts of RPMI-8226 MM cells (which express more immunoproteasomes than NCI-H929 cells) were treated first with the NC inhibitors and then with the MV-151 probe. This was followed by fractionation on SDS-PAGE to separate proteasome subunits and imaging to reveal those subunits labeled by the probe (i.e., unmodified by the inhibitors).

cathepsin D = target: T4, cathepsin D (Homo sapiens, UniProt P07339); experiment: Cathepsin D activity assay (SENSOLYTE 520); format: cell-based
T4 construct: endogenous in cells
T4 sequence (P07339 65-412): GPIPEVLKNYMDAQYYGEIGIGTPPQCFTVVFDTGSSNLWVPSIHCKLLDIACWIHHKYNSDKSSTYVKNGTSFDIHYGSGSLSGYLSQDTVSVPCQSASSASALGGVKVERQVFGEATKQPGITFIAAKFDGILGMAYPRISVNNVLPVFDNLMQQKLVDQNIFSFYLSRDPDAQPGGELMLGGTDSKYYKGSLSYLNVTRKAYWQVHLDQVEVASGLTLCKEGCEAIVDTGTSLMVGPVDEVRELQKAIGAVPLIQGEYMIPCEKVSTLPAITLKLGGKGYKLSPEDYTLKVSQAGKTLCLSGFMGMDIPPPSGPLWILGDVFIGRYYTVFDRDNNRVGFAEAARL
Method: as §2

[7] = tested on: proteasome catalytic subunits in NCI-H929 cells; experiment: Isolation and identification of polypeptides modified by az-NC-002; format: cell-based; settings: BioP ligation, streptavidin isolation, mass-spectrometry
Method: Cells were treated with the activity-based site probe overnight and lysed with 50 mM Tris-HCl, 10% glycerol, 5 mM MgCl2, 0.5 mM EDTA, 0.5% CHAPS, 1 mM ATP. […] After on-beads trypsin digestion, samples were analyzed by LC-MS/MS (Florea, et al. (2010) Chem. Biol. 17:795-801). IRDYE 800 CW-conjugated streptavidin was purchased from Rockland, hsc71 antibodies from Abcam (Cat #19136), and β2 antibodies from Abgent (Cat #AP2914b).
To further confirm that NC-002, NC-012 and NC-022 were specific for the trypsin-like sites and that the biological activity was not due to off-target effects, az-NC-002 was synthesized as an NC-002-derived, activity-based probe. […] One major az-NC-002-specific streptavidin-reactive band was detected. […] A weaker band of slightly lower mobility, matching the mobility of β2i band, was also detected. […] A number of endogenously biotinylated proteins in the 70-100 kDa region were also detected and can serve as a loading control.
To further confirm that the probe covalently modified β2 and β2i subunits, proteasome was denatured after BioP modification, biotinylated polypeptides were isolated on streptavidin beads, and bound polypeptides were identified by mass-spectrometry after on-beads trypsin digestion. […] No peptides derived from other catalytic subunits were detected.

[8] = target: β2 (trypsin-like site) of proteasome in HEK-293T cells (Homo sapiens, UniProt P49720+Q99436); experiment: Competition assay in living HEK-293T cells with activity-based probe; format: cell-based
Method: Proteasome inhibition in MM cells was measured with luminogenic substrates using PROTEASOMEGLO assay (Promega). […] An aliquot of culture was pelleted and medium was removed and replaced with PBS. The resulting cell suspension was mixed with luminogenic substrates in the manufacturer-provided lysis/assay buffer. After 3 minutes mixing on an orbital shaker, the plate was incubated in the dark for additional 17 minutes, followed by the measurements of the luminescence, performed in triplicate for each substrate/data point. Data were analyzed as for purified proteasomes. […] Cells (1×10^6 per well of a 6-well plate) were incubated with the inhibitors for 4 hours at 37° C. and this was followed by a 2 hour incubation with 5 μM BODIPY-TMR-epoxomicin. Subsequently, the medium was removed and the cells were washed with PBS and harvested. […] The supernatant was collected and the protein concentration was determined by the Bradford assay, and used to normalize gel loading. The samples were analysed by SDS-PAGE and fluorescent densitometry as described for competition experiment in cell lysates. IC50 values were calculated from three independent experiments using […] PRISM software.
Human embryonic kidney cells (some 1×10^6) were cultured in 6-well plates in DMEM containing 10% fetal calf serum, 10 units/mL penicillin and 10 μg/mL streptomycin in a 7% CO2 humidified incubator at 37° C. overnight. Part of the medium was taken and to this was added the appropriate inhibitor in DMSO (1 μL of a 1,000× stock solution), after which the medium was added to the cells. The cells were incubated with the inhibitors for 4 hours at 37° C. and this was followed by addition of MV151 (1 μL of a 5 mM stock solution in DMSO) and incubation for 2 hours at 37° C. Next, the medium was removed and the cells were washed with PBS and harvested. […] The supernatant was collected and the protein concentration was determined by the Bradford assay. All samples were normalized to the same protein concentration with lysis buffer.

β2 proteasome subunit = target: T5, β2 proteasome subunit (Homo sapiens, UniProt P49720+Q99436); experiment: Competition assay in HEK-293T cell lysate with MV151; format: biochemical; settings: HEK-293T lysate, 5 μM
T5 construct: Whole cell lysates of HEK-293T or EL-4 cells were made by sonication; endogenous in cells; host or cells: HEK-293T

β5 proteasome subunit = target: T6, β5 proteasome subunit (Homo sapiens, UniProt P20618+P28074); experiment: as above; format: biochemical; settings: HEK-293T lysate, 5 μM
T6 construct: Whole cell lysates of HEK-293T or EL-4 cells were made by sonication; endogenous in cells; host or cells: HEK-293T
Method: Whole cell lysates of HEK-293T or EL-4 cells were made by sonication in 3 volumes of lysis buffer containing 50 mM Tris pH 7.5, 1 mM DTT, 5 mM MgCl2, 250 mM sucrose, 2 mM ATP, 0.025% digitonin. Protein concentration was determined by the Bradford assay. Cell lysates (13.5 μg total protein for HEK lysates and 9 μg total protein for EL-4 lysates) were exposed to the inhibitors for 1 hour at 37° C. prior to incubation with MV151 (0.5 μM) or BODIPY-TMR-epoxomicin (0.5 μM) for an additional 1 hour at 37° C. Reaction mixtures were boiled with Laemmli's buffer containing (3-mercaptoethanol for 5 minutes before being resolved by 12.5% SDS-PAGE. In-gel detection of residual proteasome activity was performed in the wet gel slabs directly on the TYPHOON Variable Mode Imager (Amersham Biosciences) using the Cy3/Tamra settings (λex 532 nm, λem 560 nm) to detect MV151, BODIPY-TMR-epoxomicin and Cy2/Fam settings (λex 488 nm, λem 520 nm) to detect compounds 39 and 59.
The inhibition potential of the inhibitors for each of the catalytically active subunits was assessed in competition assays employing extracts of human embryonic kidney cells (HEK-293T) and mouse lymphoma cells (EL-4) in combination with the fluorescent broad spectrum proteasome probe MV151 (Verdoes, et al. (2006) Chem. Biol. 13:1217-1226). Competitive inhibition of a proteasome active site is reflected by the disappearance of the corresponding band on a gel.

CC(=O)N[C@@H](CC(C)C)C(=O)N[C@@H](CC(C)C)C(=O)N[C@@H](CCCNC(=N)N)C(=O)[C@@]1(C)CO1 [NC-002, Ac-Leu-Leu-Arg-ek]
proteasome inhibitory potential on purified 26S proteasomes [1]: potent and specific inhibitors of the trypsin-like sites | IC50 (Chym-L)/IC50 (Tr-L) ([2]; rabbit 26S proteasomes): >30 | IC50 [3]: > 30 µM | IC50 [4]: > 30 µM | inhibition of trypsin-like activity in live cells [5]: sub-micromolar concentrations | inhibition of lysosomal cysteine proteases (Cathepsin B, H, L, S): did not inhibit | caspase activity (apoptosis) [6]: did not cause any significant increase in caspase activity | inhibition of constitutive (β2) versus immunoproteasome (β2i) trypsin-like sites (β2 and β2i sites): equipotent inhibitors of the trypsin-like sites of constitutive and immunoproteasomes

CC(C)C[C@H](NC(=O)CN=[N+]=[N-])C(=O)N[C@@H](CC(C)C)C(=O)N[C@@H](CCCNC(=N)N)C(=O)[C@@]1(C)CO1 [az-NC-002, Az-Gly-Leu-Leu-Arg-ek]
inhibition of cathepsin D (cathepsin D): no significant inhibition | subunits modified by the probe [7]: trypsin-like site-specific activity-based probe

BODIPY-triazole-Phe-Leu-Leu-Phe (4-CH2NH2)-VS [Compound 39]
inhibition of trypsin- and chymotrypsin-like activities [2]: equipotently inhibited trypsin- and chymotrypsin-like activities | specificity after attachment of BODIPY-FL dye [2]: complete loss of specificity | inhibition of β2 and β5 in living cells ([8]; 5 μM): seemed not to be competed away at all | inhibition of proteasome activity in living cells ([8]; 50 μM): not all proteasome activity was silenced | inhibition of β2 in cell lysate (β2 proteasome subunit): all β2 and β5 proteasomal activity was inhibited | inhibition of β5 in cell lysate (β5 proteasome subunit): all β2 and β5 proteasomal activity was inhibited
